# Data from patent US6180156A, “Acid salts of N-[N-(3,3-dimethylbutyl)-L-α-aspartyl]-L-phenylalanine 1-methyl ester” (The NutraSweet Company, priority 1998, dated 2001).
# Counter-ions that a name gives are not always drawn. Like-named read-outs stand apart in the source and are kept apart here. Residues, ends and D or L forms follow the SMILES beside them.
# Columns and labels:
# [1] = Dissolution in water (time to complete dissolution); type: physicochemical
# Description: N-[N-(3,3-dimethylbutyl)-L-α-aspartyl]-L-phenylalanine 1-methyl ester (25.0 g) was slurried in 150 ml of water. To the stirred slurry was slowly added concentrated hydrochloric acid (5.5 ml, 0.0661 mol). After approximately 10 minutes all the solid had dissolved. The clear solution was then freeze dried. […] Yield: 27.34 g white solid (99.7%). The hydrochloride salt (1 g) dissolved in water (100 ml) in 70 seconds. 1H NMR (CD3 CN) δ 0.89 (s, 9H), 1.64 (m, 2H), 3.01 (m, 6H), 3.68 (s, 3H), 4.16 (t, 1H), 4.67 (m, 1H), 7.26 (m, 5H), 8.27 (d, 1H). Anal. Calcd for C20 H31 ClN2 O5.H2 O: C, 55.48; H, 7.69; N, 6.47; Cl, 8.19. Found: C, 55.95; H, 7.59; N, 6.55; Cl, 8.35.
# N-[N-(3,3-dimethylbutyl)-L-α-aspartyl]-L-phenylalanine 1-methyl ester (10.0 g) was slurried in 100 ml of water. An equimolar amount of 85% phosphoric acid solution was added. After all the solid dissolved, the solution was freeze dried. […] Yield 12.33 g white solid (98.0%). The phosphate salt (0.1 g) dissolved in water (100 ml) in less than 30 seconds (visual observation) and about 90 seconds by spectrophotometric analysis. 1H NMR (CD3 CN) δ 0.89 (s, 9H), 1.55 (m, 2H), 2.84 (m, 5H), 3.19 (m, 1H), 3.67 (s, 3H), 4.06 (t, 1H), 4.70 (m, 1H), 7.27 (m, 5H), 8.03 (d, 1H). Anal. Calcd for C20 H33 N2 O9 P.H2 O: C, 48.58; H, 7.15; N, 5.67; P, 6.26. Found: C, 48.15: H, 7.08; N, 5.60; P, 6.57.
# N-[N-(3,3-dimethylbutyl)-L-α-aspartyl]-L-phenylalanine 1-methyl ester (25.0 g) was slurried in 100 ml of water and concentrated sulfuric acid (3.67 ml) was added slowly. After several minutes of stirring some material remained undissolved. Therefore, 75 ml of acetone was added. The resulting clear solution was stirred for 30 minutes, then the acetone was removed under reduced pressure on a rotary evaporator. The contents of the flask remained a clear solution. […] Yield: 30.04 g (95%). The sulfate salt (0.1 g) dissolved in water (100 ml) in less than 20 seconds (visual observation). 1H NMR (CD3 CN) δ 0.89 (s,9H), 1.57 (m, 2H), 2.91 (m, 5H), 3.20 (m, 1H), 3.68 (s, 3H), 4.15 (t, 1H), 4.72 (m, 1H), 7.27 (m, 5H), 7.68 (d, 1H). Anal. Calcd for C20 H32 N2 O9 S.H2 O: C, 48.56; H, 6.94; N, 5.66; S, 6.48. Found C, 48.93; H, 7.02; N, 5.78; S, 6.50.
# N-[N-(3,3-dimethylbutyl)-L-α-aspartyl]-L-phenylalanine 1-methyl ester (5.00 g) was dissolved in 75 ml of acetone. Citric acid (2.53 g) was dissolved in 50 ml of water, and the acetone solution was added. This formed a clear, colorless solution that was stirred for 1 hour. The acetone was evaporated under reduced pressure. The resulting slurry was freeze dried to obtain 7.5 g of a white solid. The citrate salt (0.1 g) dissolved in water (100 ml) in 90 seconds (visual observation). δ (CD3 CN) 0.89 (s, 9H), 1.53 (m, 2H), 2.83 (m, 10H), 3.20 (m, 1H), 3.67 (s, 3H), 4.04 (t, 1H), 4.21 (m, 1H), 7.27 (m, 5H), 7.79 (d, 1H). Anal. Calcd for C26 H38 N2 O12.H2 O: C, 53.05; H, 6.86; N, 4.76. Found: C, 53.10; H, 6.88; N, 4.41.
# N-[N-(3,3-dimethylbutyl) -L-α-aspartyl]-L-phenylalanine 1-methyl ester (0.05-0.1 g) was dissolved in water (100 mL). The compound completely dissolved in 5-7 minutes (visual observation). The dissolution of 1.0 g of N-[N-(3,3-dimethylbutyl)-L-α-aspartyl]-L-phenylalanine 1-methyl ester in 100 mL of water required approximately 45 minutes.
# [2] = Aqueous solubility compared to the starting material / water solubility; type: physicochemical; details: starting material = neotame
# [3] = amino group (primary in aspartame, secondary in neotame); cited from earlier work
# [4] = compared with aspartame, under some pH conditions; cited from earlier work
# [5] = on a weight basis, cited from earlier work
# [6] = compared with aspartame; cited from earlier work
# [7] = cited from earlier work
# [8] = 0.1 g in water (100 ml), visual observation
structure (smiles),measurement,setting,value
"COC(=O)[C@H](Cc1ccccc1)NC(=O)[C@H](CC(=O)O)NCCC(C)(C)C [citrate salt, Citrate Salt of N-[N-(3,3-dimethylbutyl)-L-α-aspartyl]-L-phenylalanine 1-methyl Ester]",dissolution time in water (visual observation),[1]; [8],90 s
"COC(=O)[C@H](Cc1ccccc1)NC(=O)[C@H](CC(=O)O)NCCC(C)(C)C [hydrochloride salt, Hydrochloride Salt of N-[N-(3,3-dimethylbutyl)-L-α-aspartyl]-L-phenylalanine 1-methyl Ester]",aqueous solubility compared to the starting material,[2],greatly increased aqueous solubility compared to the starting material
same,dissolution time in water,[1]; 1 g in water (100 ml),70 s
COC(=O)[C@H](Cc1ccccc1)NC(=O)[C@@H](N)CC(=O)O [aspartame] (H-Asp-Phe-OMe),pKa,[3],7.7
"COC(=O)[C@H](Cc1ccccc1)NC(=O)[C@H](CC(=O)O)NCCC(C)(C)C [sulfate salt, Sulfate Salt of N-[N-(3,3-dimethylbutyl)-L-α-aspartyl]-L-phenylalanine 1-methyl Ester]",aqueous solubility compared to the starting material,[2],greater aqueous solubility compared to the starting material
same,dissolution time in water (visual observation),[1]; [8],less than 20 seconds
"COC(=O)[C@H](Cc1ccccc1)NC(=O)[C@H](CC(=O)O)NCCC(C)(C)C [N-[N-(3,3-dimethylbutyl)-L-α-aspartyl]-L-phenylalanine 1-methyl ester]",stability,[4],higher stability than aspartame under some pH conditions
same,pKa,[3],8.1
same,sweetening potency relative to aspartame,[5]; times that of aspartame,at least 50 times
same,sweetening potency relative to sucrose,[5]; times that of sucrose,"about 10,000 times"
same,solubility in organic solvents,[6],much higher solubility in organic solvents than aspartame
same,solubility in water,[7]; compared with aspartame,much lower solubility in water
same,solubility in water,"[7]; in words, no comparator",sparingly soluble in water
same,"dissolution time in water, completely dissolved (visual observation)","[1]; 0.05-0.1 g in water (100 mL), visual observation",5 to 7 min
same,dissolution time in water,[1]; 1.0 g in 100 mL of water,approximately 45 minutes
"COC(=O)[C@H](Cc1ccccc1)NC(=O)[C@H](CC(=O)O)NCCC(C)(C)C [phosphate salt, Phosphate Salt of N-[N-(3,3-dimethylbutyl)-L-α-aspartyl]-L-phenylalanine 1-methyl Ester]",aqueous solubility compared to the starting material,[2],greatly increased aqueous solubility compared to the starting material
same,dissolution time in water by spectrophotometric analysis,"[1]; 0.1 g in water (100 ml), spectrophotometric analysis",about 90 seconds
same,dissolution time in water (visual observation),[1]; [8],less than 30 seconds
